These results are taken from patent US6340696B1, “Viral treatment” (The Procter & Gamble Company, priority 1999, dated 2002).

One data set relates to BVDV. The data set is described as follows: BVDV antiviral assay in MDBK cells, XTT readout of inhibition of virus-induced cell killing. Type of data set: cell-based. To be noted: for Comments: activity against BVDV / toxicity; for TI: TC50/IC50. As for the experimental part: (§1) Madin-Darby bovine kidney (MDBK) cells were passaged in T-75 flasks for use in the assay. On the day preceding the assay, the cells were trypsinized, pelleted, counted and resuspended at 6×10^4/well in tissue culture medium. Cells were added to 96 well flat bottom plates in a volume of 100 μl per well.
A pretitered aliquot of virus is removed from the freezer (−80° C.) and allowed to thaw slowly to room temperature in a biological safety cabinet. The virus is diluted into tissue culture medium such that the amount of virus added to each well in a volume of 100 μl will be the amount determined to give complete cell killing at 6 days post-infection.
(§2) Interferon was purchased from PBL Biomedical Laboratories (New Brunswick, N.J.) and was in PBS solutions. On the day of testing, the drug stock is diluted in the medium to the desired high concentration and then further diluted in the medium in half log series.
(§3) The day following plating of cells, plates are removed from the incubator, and medium is removed and discarded. Drug dilutions are added to appropriate wells of the microtiter plate in a volume of 100 μl per well. Each dilution is set up in triplicate. Complete medium or complete medium containing appropriately diluted virus is added to appropriate wells in a volume of 100 μl per well.
(§4) The format of the test plate has been standardized. Each plate contains cell control wells (cell only), virus control wells (cells plus virus), drug toxicity control wells (cells plus drug only), drug colorimetric control wells (drug only) as well as experimental wells (drugs plus cells plus virus).
(§5) The cell viability was evaluated by a dye (XTT) uptake procedure. XTT-tetraolium is metabolized by the mitochontrial enzymes of metabolically active cells to a soluble formazan product, allowing the rapid quantitative analysis of the inhibition of virus-induced cell killing by antiviral test substances.
(§6) XTT solution was prepared daily as a stock of 1 mg/ml in PBS. Phenazine methosulfate (PMS) solution was prepared at 15 mg/ml in PVBS and stored in the dark at −20° C. STT/PMS stock was prepared immediately before use by diluting PMS 1:100 into PBS and adding 40 μl per ml of XTT solution. Fifty microliters of XTT/PMS was added to each well of the plate (each well had been loaded with 100 μl fresh medium) and the plate was reincubated for 4 hours at 37° C.
(§7) Adhesive plate sealers were used in place of the lids, the sealed plate was inverted several times to mix the soluble formazan product and the plate was read spectrophotometrically at 450 nm (XTT) with a Molecular Devices Vmax plate reader.
(§8) The efficacy and toxicity of inteferons are analyzed using a computer program (developed by Southern Research Institute) which calculates % CPE reduction, % cell viability, IC25,50 & 95, TC5,50 & 95 and other indices.
(§9) Combination effects are analyzed statistically by Prichard and Shipman method. Effects of the drug combination on efficacy and toxicity are calculated based on the activity or toxicity of the two compounds when tested alone. The expected additive inhibition rate of virus production or the expected additive cell viability rate subtracted from the experimentally determined inhibition rate or viability rate at each combination concentration results in a positive value (synergy), a negative value (antagonism), or zero (addivity).
On the technique in general: Tetrazolium dyes change colour on reduction, which living cells bring about.

The subject of data set [1] is Madin-Darby bovine kidney (MDBK) cells. The data set is described as follows: Cytotoxicity in MDBK cells (drug toxicity control wells, XTT). As for the experimental part: as §1, §2, §3, §4, §5, §6, §7, §8, §9
[2] abbreviates: Compound conc 0.020, INF-αA conc 0.
The mark [3] stands for this setting: Compound conc 0.020, Ribavirin conc 0.
Where [4] appears, read: Compound conc 0.063, INF-αA conc 0.
[5] abbreviates: Compound conc 0.063, Ribavirin conc 0.
[6] abbreviates: Compound conc 0.200, INF-αA conc 0.
Setting [7] is: Compound conc 0.200, Ribavirin conc 0.
Setting [8] is: Compound conc 0.633, INF-αA conc 0.
Where [9] appears, read: Compound conc 0.633, Ribavirin conc 0.
Setting [10] is: Compound conc 2.00, INF-αA conc 0.
[11] abbreviates: Compound conc 2.00, Ribavirin conc 0.

Where two headings read alike, the source gives them in different places. Marks after values point to notes of the source that are not given here.

In the case of `NC(=O)c1ncn([C@@H]2O[C@H](CO)[C@@H](O)[C@H]2O)n1` [Ribavirin, 1-β-D-ribofuranosyl-1H-1,2,4-triazole-3carboxamide, reference compound], in the data set on BVDV (Bovine viral diarrhea virus isolates and strains, MDBK), the IC50 was 0.66 µg/mL. For the same molecule, the “Antiviral Percentage Inhibition” value in the data set with BVDV (Compound conc 0, Ribavirin conc 0.075) was determined as 0%; with BVDV (Compound conc 0, Ribavirin conc 0.238) it was 5.2%; in the data set on BVDV (Compound conc 0, Ribavirin conc 0.751) it was 5%; in the data set with BVDV (Compound conc 0, Ribavirin conc 2.373) it was 7.9%; in the data set on BVDV (Compound conc 0, Ribavirin conc 7.5), 43.7%; with BVDV (Ribavirin conc 0.075, INF-αA conc 0) it was 0%. The “Antiviral Percentage Inhibition” value in the data set on BVDV (Ribavirin conc 0.238, INF-αA conc 0) is listed as 5%; in the data set on BVDV (Ribavirin conc 0.751, INF-αA conc 0), 3%; in the data set with BVDV (Ribavirin conc 2.373, INF-αA conc 0), 31.5%; with BVDV (Ribavirin conc 7.500, INF-αA conc 0), 41.6%. Moreover, in the data set with BVDV, the Comments result was “Active/Toxic”. Further, the TC50 in data set [1] (MDBK cells, unit per footnote) is 7.19* μg/ml.
For “(5-Phenyl-1,2,4-thiadiazol)-3-yl thiourea [Compound]”, the “Antiviral Percentage Inhibition” value in the data set with BVDV (setting [2]) was 5.8%; with BVDV (setting [3]), 7.3%; with BVDV (setting [4]) it was 7%; in the data set on BVDV (setting [5]) it was 5%; in the data set with BVDV (setting [6]) it was 4%; in the data set on BVDV (setting [7]), 3.6%. For the same molecule, the “Antiviral Percentage Inhibition” value in the data set on BVDV (setting [8]) was found to be 11.7%; with BVDV (setting [9]), 7.6%; in the data set with BVDV (setting [10]) it was 25.9%; with BVDV (setting [11]), 29.5%. Also, the “combination effect on activity against BVDV in vitro (words)” value in the data set on BVDV (listed as (5-Phenyl -1,2,4-thiadiazol)-3-yl thiourea) was “acts synergistically with INF-αA”; in the data set with BVDV (listed as (5-Phenyl-1,2,4-thiadiazol)-3-yl thiourea) it was “does not have antagonistic effect on activity of ribavirin”. Also, the “Cytotoxicity Percentage” value in data set [1] (setting [2]) was found to be 0%; in data set [1] (setting [3]), 16.3%; in data set [1] (setting [4]), 5.8%; in data set [1] (setting [5]), 6.7%; in data set [1] (setting [6]) it was 8.3%; in data set [1] (setting [7]), 6.2%. The “Cytotoxicity Percentage” value came out at 13.5% in data set [1] (setting [8]), 16.9% in data set [1] (setting [9]), 10.3% in data set [1] (setting [10]) and 18.8% in data set [1] (setting [11]). Further, the “combination effect on toxicity of ribavirin towards the cells” value in data set [1] (in vitro) is recorded as “imposes antagonistic effect on toxicity of ribavirin”.
Take INF-α I: human IFN-α species I: in the data set on BVDV (BVDV in MDBK cells), the IC50 is given as 26.80 U/ml. In the data set on BVDV, the TI was more than 11.81 and the Comments result was “Active/Nontoxic”. Besides, the TC50 in data set [1] was more than 316.00 U/ml.

B1: INF-α J1: human IFN-α species J1 (protein, UniProt P01567 24-189, looked up)
Interferon alpha-7: CDLPQTHSLRNRRALILLAQMGRISPFSCLKDRHEFRFPEEEFDGHQFQKTQAISVLHEMIQQTFNLFSTEDSSAAWEQSLLEKFSTELYQQLNDLEACVIQEVGVEETPLMNEDFILAVRKYFQRITLYLMEKKYSPCAWEVVRAEIMRSFSFSTNLKKGLRRKD
For B1, the IC50 in the data set with BVDV (BVDV in MDBK cells) was determined as 10.60 U/ml. Further, in the data set with BVDV, the TI is listed as more than 29.90 and the Comments result was “Active/Nontoxic”. For the same molecule, in data set [1], the TC50 is given as more than 316.00 U/ml.

B2: INF-α K: human IFN-α species K (protein, UniProt P05013 21-189, looked up)
Interferon alpha-6: SLDCDLPQTHSLGHRRTMMLLAQMRRISLFSCLKDRHDFRFPQEEFDGNQFQKAEAISVLHEVIQQTFNLFSTKDSSVAWDERLLDKLYTELYQQLNDLEACVMQEVWVGGTPLMNEDSILAVRKYFQRITLYLTEKKYSPCAWEVVRAEIMRSFSSSRNLQERLRRKE
As to B2, the IC50 in the data set with BVDV (BVDV in MDBK cells) came out at 24.80 U/ml. In the data set with BVDV, the TI is recorded as more than 12.72 and the Comments result was “Active/Nontoxic”. Moreover, the TC50 in data set [1] was more than 316.00 U/ml.

B3: INF-α H2: human IFN-α species H2 (protein, UniProt P01570 24-189, looked up)
Interferon alpha-14: CNLSQTHSLNNRRTLMLMAQMRRISPFSCLKDRHDFEFPQEEFDGNQFQKAQAISVLHEMMQQTFNLFSTKNSSAAWDETLLEKFYIELFQQMNDLEACVIQEVGVEETPLMNEDSILAVKKYFQRITLYLMEKKYSPCAWEVVRAEIMRSLSFSTNLQKRLRRKD
With B3, the IC50 in the data set on BVDV (BVDV in MDBK cells) is 7.00 U/ml. Also, in the data set on BVDV, the TI is more than 45.12 and the Comments result was “Active/Nontoxic”. Also, the TC50 in data set [1] was more than 316.00 U/ml.

B4: INF-α WA: human IFN-α species WA (protein, UniProt P05015 24-189, looked up)
Interferon alpha-16: CDLPQTHSLGNRRALILLAQMGRISHFSCLKDRYDFGFPQEVFDGNQFQKAQAISAFHEMIQQTFNLFSTKDSSAAWDETLLDKFYIELFQQLNDLEACVTQEVGVEEIALMNEDSILAVRKYFQRITLYLMGKKYSPCAWEVVRAEIMRSFSFSTNLQKGLRRKD
For B4, in the data set with BVDV (BVDV in MDBK cells), the IC50 is 6.75 U/ml. In the data set with BVDV, the TI was more than 46.78 and the Comments result was “Active/Nontoxic”. Also, the TC50 in data set [1] was more than 316.00 U/ml.

B5: INF-α D: human IFN-α species D (protein, UniProt P01562 24-189, looked up)
Interferon alpha-1/13: CDLPETHSLDNRRTLMLLAQMSRISPSSCLMDRHDFGFPQEEFDGNQFQKAPAISVLHELIQQIFNLFTTKDSSAAWDEDLLDKFCTELYQQLNDLEACVMQEERVGETPLMNADSILAVKKYFRRITLYLTEKKYSPCAWEVVRAEIMRSLSLSTNLQERLRRKE
For the molecule B5, the IC50 with BVDV (BVDV in MDBK cells) was found to be 11.60 U/ml. Besides, in the data set on BVDV, the TI was more than 27.31 and the Comments result was “Active/Nontoxic”. Moreover, in data set [1], the TC50 was more than 316.00 U/ml.

B6: INF-α F: human IFN-α species F (protein, UniProt P01568 24-189, looked up)
Interferon alpha-21: CDLPQTHSLGNRRALILLAQMGRISPFSCLKDRHDFGFPQEEFDGNQFQKAQAISVLHEMIQQTFNLFSTKDSSATWEQSLLEKFSTELNQQLNDLEACVIQEVGVEETPLMNVDSILAVKKYFQRITLYLTEKKYSPCAWEVVRAEIMRSFSLSKIFQERLRRKE
For B6, the IC50 in the data set on BVDV (BVDV in MDBK cells) was 33.00 U/ml. Also, in the data set on BVDV, the TI is on record as more than 9.57 and the Comments entry was “Active/Nontoxic”. The TC50 in data set [1] was more than 316.00 U/ml.

B7: INF-α G: human IFN-α species G (protein, UniProt P01569 22-189, looked up)
Interferon alpha-5: LGCDLPQTHSLSNRRTLMIMAQMGRISPFSCLKDRHDFGFPQEEFDGNQFQKAQAISVLHEMIQQTFNLFSTKDSSATWDETLLDKFYTELYQQLNDLEACMMQEVGVEDTPLMNVDSILTVRKYFQRITLYLTEKKYSPCAWEVVRAEIMRSFSLSANLQERLRRKE
Turning to B7, the IC50 with BVDV (BVDV in MDBK cells) stood at 23.60 U/ml. For the same molecule, in the data set with BVDV, the TI is more than 13.40 and the Comments result is “Active/Nontoxic”. Moreover, the TC50 in data set [1] is more than 316.00 U/ml.

B8: INF-α C: human IFN-α species C (protein, UniProt P01566 24-189, looked up)
Interferon alpha-10: CDLPQTHSLGNRRALILLGQMGRISPFSCLKDRHDFRIPQEEFDGNQFQKAQAISVLHEMIQQTFNLFSTEDSSAAWEQSLLEKFSTELYQQLNDLEACVIQEVGVEETPLMNEDSILAVRKYFQRITLYLIERKYSPCAWEVVRAEIMRSLSFSTNLQKRLRRKD
Regarding B8, in the data set with BVDV (BVDV in MDBK cells), the IC50 is recorded as 9.12 U/ml. Moreover, in the data set with BVDV, the TI is more than 34.66 and the Comments result is on record as “Active/Nontoxic”. Further, the TC50 in data set [1] is reported as more than 316.00 U/ml.
